From patent US20240124510A1, “Cyclic Glycoaminoacid Derivatives” (TFCHEM, priority 2021, published 2024)
Where “and” joins values, the source holds several entries; their conditions need not be identical. Equal entries are not always repeated.

Tests used:
Assay type in all cases: cell-based
[1] = tested on: Human dermal fibroblasts; experiment: Cytotoxicity (LDH release) on dermal fibroblasts in classical condition; conditions: for Cytotoxicity (LDH release), Mean / Cytotoxicity (LDH release), Values: during 24 h after 11 days of culture, normalized by cell number; for Cytotoxicity (LDH release), Values: individual values
Protocol: Human dermal fibroblasts were isolated from skin tissue by dermis explants seeding in Petri dishes in DMEM-20% FBS for 3 weeks. Dermal fibroblasts were then seeded in 96-well plates and then incubated in different culture conditions described below.
Different culture conditions were realized in triplicate at least: • Positive control of cytotoxicity: cells in DMEM 1% FBS medium lysed by 0.2% triton at the end of the culture period • Control: cells in DMEM 1% FBS medium • Test: cells in DMEM 1% FBS medium added with test compound 6 and compound 44 of WO2015/140178.
Cytotoxicity was assessed by the measurement of the lactate dehydrogenase (LDH) released by damaged cells in the culture medium (using the kit CytoTox-One Non-Radioactive Cytotoxicity Assay, G1780, Promega). Cells were treated with 0.2% of triton at the end of the culture to determine the maximal toxicity response. […]
The results were normalized by cell number, determined by nuclei staining (with DAPI: 4′,6-Diamidino-2-Phenylindole, Dihydrochloride), and were represented in percentage of the lysis positive control. Compounds presenting a level of cytotoxicity below 20% compared to control were considered as non-toxic.
Quantity of LDH released by cells was normalized by cell number in each culture condition. Data are represented in percentage of the positive control.

[2] = tested on: procollagen I; experiment: Procollagen I secretion in coculture of human aged fibroblasts and mature adipocytes (ELISA); conditions: for secretion of Procollagen I, normalized by fibroblasts number, in percentage of the coculture control condition, Values: individual replicates
From the text: In order to evaluate its effect on fibroblast matrix and its anti-inflammatory properties, the effect of compound 6 has been tested on an adipocytes-aged fibroblasts coculture model, mimicking the interactions between dermis and hypodermis in the skin and allowed to explore in parallel the biological effects of the products on two cellular targets.
• Experimental model: co-culture of human mature adipocytes cultured in 3D and human dermal fibroblasts cultured in 2D (AM3D-FB2D co-culture). This experimental model of AM3D-FB2D co-culture mimicked the interactions between dermis and hypodermis in the skin and allowed to explore in parallel the biological effects of the products on two cellular targets. • Donor characteristics: This study was performed on mature adipocytes and fibroblasts from two different donors (one donor for mature adipocytes and another donor for dermal fibroblasts). • Fibroblasts donor=person, BMI=28 kg/m^2 • Adipocytes donor=person, BMI=21.4 kg/m^2 • Treatment procedure: compound 6 was added to the co-culture medium daily for up to 6 days
Dermal fibroblasts were seeded in DMEM 10% FBS at 10000 cells/well. The day after, the adipocytes capsules of 50 μl were added in suspension above the fibroblasts and the medium was changed and replaced by a specific culture medium for the co-culture AM3D-FB2D. The formation of adipocytes capsules followed an internal standardized protocol. Briefly, the fully mature adipocytes were isolated from the hypodermis after digestion by collagenase. The isolated adipocytes were then washed with a wash buffer and encapsulated in a peptidic hydrogel to form 3D adipocytes capsules of 50 μl in size. Cells were incubated at 37° C. and 5% CO2 overnight for stabilization. Treatments were initiated at DO with a medium change at DO, D2, D3 and D5. The entire culture media of 24 h incubation was collected at D3 and D6, before being centrifugated and stored at −80° C. Each culture condition was done in triplicate.
The biochemical analyses on culture media were performed via ELISA using specific kits according to the manufacturer's recommendations: IL-6 (Duoset DY206, R&D Systems), and Hyaluronic Acid (HA) (Duoset, DY3614-05, R&D Systems and Procollagen I (Duoset, DY6220-05, R&D Systems) The results of HA and Procollagen I were normalized by fibroblasts cell number regarding the fact that these molecules were secreted mainly by fibroblasts. All the biochemical results were represented in percentage of the control condition.
To evaluate the effect of the compound 6 on fibroblasts' matrix, the extracellular concentrations of Procollagen I, that is secreted only by the fibroblasts, were measured at D3 and D6.

[3] = tested on: Normal human epidermal keratinocytes (NHEK); experiment: Total lipid neosynthesis in NHEK ([14C]-acetate incorporation); conditions: 48 hours; for [14C]-Acetate (cpm): individual replicates
Protocol: Normal human epidermal keratinocytes (NHEK) were seeded in 12-well plates and incubated in culture medium for 24 hours. The medium was then replaced by culture medium containing or not (control) the test compounds or the reference (CaCl2+Vitamin C at 1.5 mM+200 μg/ml respectively) in the presence of the radioactive tracer [^14C]-acetate. Cells were incubated for 48 hours. All experimental conditions were performed in triplicate.
Culture medium was Keratinocyte-SFM supplemented with Epidermal Growth Factor (EGF) 0.25 ng/ml, Pituitary extract (PE) 25 μg/ml and Gentamycin 25 μg/ml. The assay medium was Keratinocyte-SFM supplemented with Gentamycin 25 μg/ml.
At the end of incubation, cells were rinsed with PBS solution and then detached from their support by trypsin treatment. The [^14C]-acetate incorporation was then measured by liquid scintillation (measure of radioactivity). The incorporation is correlated with the total lipid neosynthesis. Results presented in Table 23 are expressed as cpm and % of control.

In the case of N[C@H]1CCCN(CC(F)(F)[C@]2(O)O[C@H](CO)[C@H](O)[C@H](O)[C@H]2O)C1=O [Compound 6], the “Cytotoxicity (LDH release), Mean” value ([1]; 0.1 mg/ml) is reported as 6.7 percentage of positive control, the “Cytotoxicity (LDH release), Values” ([1]; 0.1 mg/ml) is reported as 5.9 percentage of positive control and 4.8 percentage of positive control and 6.5 percentage of positive control and 9.8 percentage of positive control and the “Cytotoxicity (LDH release), Mean” value ([1]; 0.5 mg/ml) is reported as 5.6 percentage of positive control. For the same compound, the “Cytotoxicity (LDH release), Values” ([1]; 0.5 mg/ml) was 7.1 percentage of positive control and 6.6 percentage of positive control and 3.1 percentage of positive control and 5.7 percentage of positive control, the “Toxicity on dermal fibroblasts” value ([1]; 2 mg/ml, 0.5 mg/ml and 0.1 mg/ml) was “No toxicity” and the “Cytotoxicity (LDH release), Mean” value ([1]; 2 mg/ml) was 5.1 percentage of positive control. The “Cytotoxicity (LDH release), Values” ([1]; 2 mg/ml) was 4.2 percentage of positive control and 5.1 percentage of positive control and 5.3 percentage of positive control and 6.0 percentage of positive control, the “Protective effect on dermal fibroblasts under classical condition” value ([1]; all concentrations) was “strong protective effect” and the “secretion of Procollagen I, normalized by fibroblasts number, in percentage of the coculture control condition, Mean” value ([2]; D3, 1 mg/ml) was 163%. The “secretion of Procollagen I, normalized by fibroblasts number, in percentage of the coculture control condition, Values” ([2]; D3, 1 mg/ml) was 162% and 158% and 168%, the “secretion of Procollagen I, normalized by fibroblasts number, in percentage of the coculture control condition, Mean” value ([2]; D3, 2 mg/ml) was 159% and the “secretion of Procollagen I, normalized by fibroblasts number, in percentage of the coculture control condition, Values” ([2]; D3, 2 mg/ml) was 177% and 144% and 157%. For the same compound, the “secretion of Procollagen I, normalized by fibroblasts number, in percentage of the coculture control condition, Mean” value ([2]; D3, 3 mg/ml) was 173%, the “secretion of Procollagen I, normalized by fibroblasts number, in percentage of the coculture control condition, Values” ([2]; D3, 3 mg/ml) was 202% and 78% and 238% and the “secretion of Procollagen I, normalized by fibroblasts number, in percentage of the coculture control condition, Mean” value ([2]; D6, 1 mg/ml) was 418%. For the same compound, the “secretion of Procollagen I, normalized by fibroblasts number, in percentage of the coculture control condition, Values” ([2]; D6, 1 mg/ml) was 312% and 472% and 469%, the “secretion of Procollagen I, normalized by fibroblasts number, in percentage of the coculture control condition, Mean” value ([2]; D6, 2 mg/ml) was 411% and the “secretion of Procollagen I, normalized by fibroblasts number, in percentage of the coculture control condition, Values” ([2]; D6, 2 mg/ml) was 284% and 488% and 460%. For the same compound, the “secretion of Procollagen I, normalized by fibroblasts number, in percentage of the coculture control condition, Mean” value ([2]; D6, 3 mg/ml) was 474%, the “secretion of Procollagen I, normalized by fibroblasts number, in percentage of the coculture control condition, Values” ([2]; D6, 3 mg/ml) was 515% and 398% and 508% and the “% Control (total lipid neosynthesis)” value ([3]; 1 mg/ml) was 110%. For the same compound, the “% Stimulation (total lipid neosynthesis)” value ([3]; 1 mg/ml) was 10%, the “[14C]-Acetate Mean (cpm)” value ([3]; 1 mg/ml) was 78584 cpm and the “[14C]-Acetate (cpm)” value ([3]; 1 mg/ml) was 77267 cpm and 78905 cpm and 79581 cpm. For the same compound, the “% Control (total lipid neosynthesis)” value ([3]; 3 mg/ml) was 121%, the “% Stimulation (total lipid neosynthesis)” value ([3]; 3 mg/ml) was 21% and the “[14C]-Acetate Mean (cpm)” value ([3]; 3 mg/ml) was 86022 cpm. The “[14C]-Acetate (cpm)” value ([3]; 3 mg/ml) was 84794 cpm and 87349 cpm and 85922 cpm and 86860 cpm, the “Stimulation of lipid synthesis compared to the control” value ([3]; 1 mg/ml) was 10% and the “Stimulation of lipid synthesis compared to the control” value ([3]; 3 mg/ml) was 21%.
